Among the data in patent US6784184B2, “5-(arylsulfonyl)-,5-(arylsulfinyl), and 5-(arylsulfanyl)-thiazolidine-2,4-diones useful for inhibition of farnesyl-protein transferase” (Wyeth Holdings Corporation, priority 2001, dated 2004) are IC50 values, retold here.

For orientation: IC50 means the concentration at which inhibition is half-maximal. Read a high IC50 as lower potency.

Test [1] deals with FPTase (H-Ras substrate) (UniProt P29702+P49355). As to the kind of experiment: in vitro FTase Inhibition Assay, H-Ras as substrate for farnesylation. It is filed as biochemical. The note with it: H-Ras used as substrate for farnesylation. The method, then:
(§1) The ability of the compounds of this invention to inhibit FPTase was evaluated in the standard pharmacological in vitro test procedures described below.
(§2) Methods—1. […] 2. Solution #1 is added to FPTase reaction in a volume of […]. 3. Standard reaction mix, […], contains 50 mM Tris (7.5), […], 3 mM MgCl2, 20 mM KCl, 5 mM DTT, 0.2% octyl-B-glucoside, 1% DMSO, […], 10 ng FPTase, and various concentrations of FPTase inhibitors. 4. Incubate for 30-90 min at […] 5. Stop reactions with TCA/SDS (6%/2%), hold at 4° C. for 45-60 min. 6. Filter by manifold or 96 well plate, wash filter 3-5× with TCA (6%). 7. Add scintillant to filters, measure ^3H-FPP incorporation into Ras protein.
(§3) (cpm from precipitated Ras with test compounds)−(background cpm)×100=% inhibition.
(§4) (cpm from precipitated Ras without test compounds)−(background cpm)

The target in test [2] is FPTase (K-Ras substrate) (UniProt P29702+P49355). As to the kind of experiment: in vitro FTase Inhibition Assay, K-Ras as substrate for farnesylation. It is filed as biochemical. The note with it: K-Ras used as substrate for farnesylation. The method, then: as §1, §2, §3, §4

Structures are written as SMILES.

For `O=C1NC(=O)C(CCCC#Cc2ccc([N+](=O)[O-])cc2)(S(=O)(=O)c2ccc(I)cc2)S1` (centres unmarked) [Example 120, 5-(4-Iodobenzenesulfonyl)-5-[5-(4-nitrophenyl)pent-4-ynyl]-thiazolidine-2,4-dione], the IC50 in test [1] fell in the range of 18 to 32 nM; in test [2], 530 to 1000 nM.

`COc1ccc(S(=O)(=O)C2(CCCC#Cc3ccc([N+](=O)[O-])cc3)SC(=O)NC2=O)cc1` (centres unmarked) [Example 121, 5-(4-Methoxybenzenesulfonyl)-5-[5-(4-nitrophenyl)pent-4-ynyl]-thiazolidine-2,4-dione]: the results for the IC50 in test [1] and in test [2] were 120 nM and 1600 nM, respectively.

Turning to `COc1ccc(S(=O)(=O)C2(CCCC#Cc3cc([N+](=O)[O-])ccc3C)SC(=O)NC2=O)cc1` (centres unmarked) [Example 122, 5-(4-Methoxybenzenesulfonyl)-5-[5-(2-methyl-5-nitrophenyl)pent-4-ynyl]-thiazolidine-2,4-dione], the values for the IC50 in test [1] and in test [2] were 30 to 50 nM and 230 to 1000 nM, respectively.

On to `COc1ccc(S(=O)(=O)C2(CCCC#Cc3cc([N+](=O)[O-])ccc3OC)SC(=O)NC2=O)cc1` (centres unmarked) [Example 123, 5-(4-Methoxybenzenesulfonyl)-5-[5-(2-methoxy-5-nitrophenyl)pent-4-ynyl]-thiazolidine-2,4-dione], for which the IC50 fell in the range of 80 to 82 nM in test [1] and 1000 to 2800 nM in test [2].

As to `Cc1ccc([N+](=O)[O-])cc1C#CCCCC1(S(=O)(=O)c2ccc(Oc3ccccc3)cc2)SC(=O)NC1=O` (centres unmarked) [Example 124], the figures for the IC50 in test [1] and in test [2] were 52 to 80 nM and 910 to 1300 nM, respectively.

`Cc1ccc([N+](=O)[O-])cc1C#CCCCC1(S(=O)(=O)c2ccc(I)cc2)SC(=O)NC1=O` (centres unmarked) [Example 125, 5-(4-Iodobenzenesulfonyl)-5-[5-(2-methyl-5-nitrophenyl)pent-4-ynyl]-thiazolidine-2,4-dione]: the half-inhibitory concentration (IC50) in test [1] was determined as 30 nM; in test [2], 400 nM.

As to `Cc1ccc([N+](=O)[O-])cc1C#CCCCC1(S(=O)(=O)c2cccc3ccccc23)SC(=O)NC1=O` (centres unmarked) [Example 126, 5-[5-(2-Methyl-5-nitrophenyl)-pent-4-ynyl]-5-(naphthalene-1-sulfonyl)-thiazolidine-2,4-dione], the figures for the IC50 in test [1] and in test [2] were 90 nM and 1700 nM, respectively.

Turning to `Cc1ccc([N+](=O)[O-])cc1C#CCCCC1(S(=O)(=O)c2ccc3ccccc3c2)SC(=O)NC1=O` (centres unmarked) [Example 127, 5-[5-(2-Methyl-5-nitrophenyl)pent-4-ynyl]-5-(naphthalene-2-sulfonyl)-thiazolidine-2,4-dione], the IC50 is 120 to 140 nM in test [1] and 1300 to 1500 nM in test [2].

As to `Cc1cc([N+](=O)[O-])ccc1C#CCCCC1(S(=O)(=O)c2ccc(Oc3ccccc3)cc2)SC(=O)NC1=O` (centres unmarked) [Example 129, 5-[5-(2-Methyl-4-nitrophenyl)pent-4-ynyl]-5-(4-phenoxybenzenesulfonyl)-thiazolidine-2,4-dione], the values for the IC50 in test [1] and in test [2] were 100 nM and 600 to 790 nM, respectively.

For the molecule `COc1ccc(S(=O)(=O)C2(CCCC#Cc3ccc([N+](=O)[O-])cc3C)SC(=O)NC2=O)cc1` (centres unmarked) [Example 130, 5-(4-Methoxybenzenesulfonyl)-5-[5-(2-methyl-4-nitrophenyl)-pent-4-ynyl]-thiazolidine-2,4-dione], the IC50 in test [1] fell in the range of 23 to 56 nM; in test [2], 320 to 1000 nM.

Consider `COc1ccc(S(=O)(=O)C2(CCCC#Cc3ccc([N+](=O)[O-])cc3OC)SC(=O)NC2=O)cc1` (centres unmarked) [Example 132, 5-(4-Methoxybenzenesulfonyl)-5-[5-(2-methoxy-4-nitrophenyl)pent-4-ynyl]-thiazolidine-2,4-dione], for which the IC50 in test [1] lay within 41 to 73 nM; in test [2], 210 to 1000 nM.

For the molecule `COc1ccc(S(=O)(=O)C2(CCCC#Cc3cc(F)cc([N+](=O)[O-])c3)SC(=O)NC2=O)cc1` (centres unmarked) [Example 133, 5-[5-(3-Fluoro-5-nitrophenyl)pent-4-ynyl]-5-(4-methoxybenzene-sulfonyl)-thiazolidine-2,4-dione], the IC50 in test [1] was in the range of 40 to 200 nM; in test [2], 54 to 1000 nM.

Consider `Cc1ccc(C)c(C#CCCCC2(S(=O)(=O)c3ccc(I)cc3)SC(=O)NC2=O)c1` (centres unmarked) [Example 134, 5-[5-(2,5-Dimethylphenyl)pent-4-ynyl]-5-(4-iodobenzenesulfonyl)-thiazolidine-2,4-dione], for which the IC50 lay in the range of 14 to 850 nM in test [1] and 430 to 680 nM in test [2].

Consider `COc1ccc(S(=O)(=O)C2(CCCC#Cc3cc(C)ccc3C)SC(=O)NC2=O)cc1` (centres unmarked) [Example 135, 5-[5-(2,5-Dimethylphenyl)pent-4-ynyl]-5-(4-methoxybenzenesulfonyl)-thiazolidine-2,4-dione], for which the IC50 was 20 to 32 nM in test [1] and 1900 to 2100 nM in test [2].

Consider `COc1ccc(S(=O)(=O)C2(CCCC#Cc3ccc(C)cc3C)SC(=O)NC2=O)cc1` (centres unmarked) [Example 136, 5-[5-(2,4-Dimethylphenyl)pent-4-ynyl]-5-(4-methoxybenzenesulfonyl)-thiazolidine-2,4-dione], for which the 50% inhibitory concentration (IC50) is 43 to 50 nM in test [1] and 1000 to 1900 nM in test [2].

With `Cc1ccc(C#CCCCC2(S(=O)(=O)c3ccc(I)cc3)SC(=O)NC2=O)c(C)c1` (centres unmarked) [Example 137, 5-[5-(2,4-Dimethylphenyl)pent-4-ynyl]-5-(4-iodobenzenesulfonyl)-thiazolidine-2,4-dione], the IC50 in test [1] is 21 to 400 nM; in test [2] it was 37 to 800 nM.

For `COc1ccc(S(=O)(=O)C2(CCCC#Cc3cc(Cl)ccc3C)SC(=O)NC2=O)cc1` (centres unmarked) [Example 138, 5-[5-(5-Chloro-2-methylphenyl)pent-4-ynyl]-5-(4-methoxybenzene-sulfonyl)thiazolidine-2,4-dione], the IC50 was 23 to 32 nM in test [1] and 300 to 420 nM in test [2].

Consider `Cc1ccc(Cl)cc1C#CCCCC1(S(=O)(=O)c2ccc(OC(F)(F)F)cc2)SC(=O)NC1=O` (centres unmarked) [Example 139, 5-[5-(5-Chloro-2-methylphenyl)pent-4-ynyl]-5-(4-trifluoromethoxybenzene-sulfonyl)thiazolidine-2,4-dione], for which the figures for the IC50 in test [1] and in test [2] were 140 to 170 nM and 600 to 5000 nM, respectively.

`COc1ccc(S(=O)(=O)C2(CCCC#Cc3ccc(Cl)cc3C)SC(=O)NC2=O)cc1` (centres unmarked) [Example 142, 5-[5-(4-Chloro-2-methylphenyl)pent-4-ynyl]-5-(4-methoxybenzene-sulfonyl)-thiazolidine-2,4-dione]: the IC50 lay in the range of 17 to 30 nM in test [1] and 40 to 1000 nM in test [2].

As to `Cc1cc(Br)ccc1C#CCCCC1(S(=O)(=O)c2ccc(I)cc2)SC(=O)NC1=O` (centres unmarked) [Example 144, 5-[5-(4-Bromo-2-methylphenyl)pent-4-ynyl]-5-(4-iodobenzenesulfonyl)-thiazolidine-2,4-dione], the IC50 lay in the range of 40 to 41 nM in test [1] and 320 to 550 nM in test [2].

On to `COc1ccc(S(=O)(=O)C2(CCCC#Cc3ccc(NC(=O)OC(C)(C)C)cc3)SC(=O)NC2=O)cc1` (centres unmarked) [Example 145, (4-{5-[5-(4-Methoxybenzensulfonyl)-2,4-dioxothiazolidin-5-yl]pent-1-ynyl}phenyl)carbamic Acid tert-Butyl Ester], for which the IC50 in test [1] was in the range of 1200 to 1700 nM; in test [2], 5600 to 10000 nM.

Consider `Cc1ccc(C(=O)NC(C)(C)C)cc1C#CCCCC1(S(=O)(=O)c2ccc(I)cc2)SC(=O)NC1=O` (centres unmarked) [Example 147, N-tert-Butyl-3-{5-[5-(4-iodo-benzenesulfonyl)-2,4-dioxothiazol-idin-5-yl]-pent-1-ynyl}-4-methylbenzamide], for which the half-maximal inhibitory concentration (IC50) in test [1] is 6.8 to 210 nM; in test [2], 80 to 100 nM.

Turning to `Cc1ccc(NC(=O)OC(C)(C)C)cc1C#CCCCC1(S(=O)(=O)c2ccc(I)cc2)SC(=O)NC1=O` (centres unmarked) [Example 148, (3-{5-[5-(4-Iodobenzenesulfonyl)-2,4-dioxothiazolidin-5-yl]-pent-1-ynyl}-4-methylphenyl)carbamic Acid tert-Butyl Ester], the 50% inhibitory concentration (IC50) in test [1] lay in the range of 4.5 to 120 nM; in test [2] it was 23 to 31 nM.

Consider `COc1ccc(S(=O)(=O)C2(CCCC#Cc3ccc(NC(=O)OC(C)(C)C)cc3C)SC(=O)NC2=O)cc1` (centres unmarked) [Example 149, (4-{5-[5-(4-Methoxybenzenesulfonyl)-2,4-dioxo-thiazolidin-5-yl]pent-1-ynyl}-3-methylphenyl)carbamic Acid tert-Butyl Ester], for which the half-maximal inhibitory concentration (IC50) in test [1] is 450 to 500 nM; in test [2], 1000 to 4900 nM.

Consider `COc1ccc(S(=O)(=O)C2(CCCC#Cc3cc(NC(=O)OC(C)(C)C)ccc3C)SC(=O)NC2=O)cc1` (centres unmarked) [Example 150, (3-{5-[5-(4-Methoxybenzenesulfonyl)-2,4-dioxothiazolidin-5-yl]pent-1-ynyl}-4-methylphenyl)carbamic Acid tert-Butyl Ester], for which the concentration for half-maximal inhibition (IC50) in test [1] was in the range of 7.4 to 32 nM; in test [2], 16 to 68 nM.

On to `COc1ccc(S(=O)(=O)C2(CCCC#Cc3ccc(NC(=O)OC(C)(C)C)cc3C(F)(F)F)SC(=O)NC2=O)cc1` (centres unmarked) [Example 151, (4-{5-[5-(4-Methoxybenzenesulfonyl)-2,4-dioxothiazolidin-5-yl]pent-1-ynyl}-3-trifluoromethylphenyl)-carbamic Acid tert-Butyl Ester], for which the IC50 lay in the range of 530 to 700 nM in test [1] and 210 to 1000 nM in test [2].

`COc1ccc(S(=O)(=O)C2(CCCC#Cc3cc(C(=O)NC(C)(C)C)ccc3C)SC(=O)NC2=O)cc1` (centres unmarked) [Example 152, N-tert-Butyl-3-{5-[5-(4-methoxy-benzenesulfonyl)-2,4-dioxothiazol-idin-5-yl]pent-1-ynyl}-4-methyl-benzamide]: the figures for the IC50 in test [1] and in test [2] were 11 to 16 nM and 100 to 230 nM, respectively.

Regarding `COc1ccc(S(=O)(=O)C2(CCCC#Cc3ccc(C(F)(F)F)cc3)SC(=O)NC2=O)cc1` (centres unmarked) [Example 153, 5-(4-Methoxybenzenesulfonyl)-5-[5-(4-trifluoromethylphenyl)pent-4-ynyl]-thiazolidine-2,4-dione], the 50% inhibitory concentration (IC50) in test [1] lay within 170 to 200 nM; in test [2], 1000 to 6100 nM.
